Data on 3 compounds can be found in patent publication US11186577B2, “Vasopressin receptor antagonists and products and methods related thereto” (BlackThorn Therapeutics, Inc., priority 2017, dated 2021).

Where two headings read alike, the source gives them in different places. Bounds are passed on as bounds.

In data set [1] the test system is MDR1-MDCK cells. Nature of the data set: MDR1-MDCK effective efflux assay (Transwell, 10 μM, 1 hour), MDR1-MDCK cells. In kind it is in vitro ADME. An outline of the steps: (§1)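 Wild-type and MDR1-MDCK monolayers cultured 3 days were dosed with compound at 10 μM (0.1% DMSO) in HBSS/25 mM HEPES pH 7.4, in both A>B and B>A directions, for 1 h at 37 °C. Samples were quantified by LC-MS/MS to give Papp and efflux ratio. Effective efflux ratio = ER(MDR1-MDCK)/ER(wild-type); Lucifer Yellow checked monolayer integrity.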

The test system of data set [2] is wild-type (WT) MDCK cells. Put plainly: MDR1-MDCK effective efflux assay (Transwell, 10 μM, 1 hour), wild-type MDCK cells. In kind it is in vitro ADME. Summed up:
as §1

Data set [3] addresses V1a receptors (Rattus norvegicus (Rat), UniProt P30560). Put plainly: Arginine-Vasopressin (AVP) induced phospho-Erk measurement in rat choroid plexus (RCP) cells. Type of data set: cell-based. The text has this: When V1a receptors are coupled to phospholipase C (PLC), they increase intracellular Ca2+ concentrations and protein kinase C (PKC) activity, and transactivate the mitogen-activated protein kinases/extracellular signal-regulated kinase (MAPK/Erk) and PI3 kinase/Akt pathways upon activation (Chen et al., J Neuroendocrinol. 2010). Rat choroid plexus (RCP) cell lines express functional V1a receptors measured by increased calcium concentrations in response to V1a receptor agonists (Battle et al., Biochem Biophys Res Comm 2000).
RCP P9(18) cells were seeded 30K/well, in 100 μl growth medium containing 10% FBS in polystyrene 96-well plates and incubated at 37° C., 5% CO2 and incubated overnight. The following day, the growth medium was replaced with 50 μl pre-warmed HBSS containing 20 mM HEPES and the cells were incubated at 37° C., 5% CO2 for 1.5 hrs. 1 mM AVP (Sigma V9879) was freshly prepared in distilled water in a glass vial, and diluted to 3× concentrations in HBSS containing 20 mM HEPES and 0.1% BSA in glass vials and kept on ice. Cells were treated with 25 μl 3× vehicle, 3× eBioscience Cell Stimulation Cocktail (Thermo Fisher Scientific 00-4970-93) or 3×AVP and incubated at 37° C., 5% CO2 for 5, 10 or 20 min. Final concentrations of AVP: 10, 100 or 1000 nM. Final concentrations of components in Cell Stimulation Cocktail: 81 nM PMA, 1.34 μM ionomycin, 0.2% ethanol. Cells were lysed with 25 μl 4×CST lysis buffer containing protease and phosphatase inhibitors, PMSF and SDS and then stored at −80° C., for 48 h. The lysates were thawed, centrifuged at 2000 g for 30 min at 4° C. and 40 μl supernatants assayed for pERK1/2 (Thr202/Tyr204; Thr185/Tyr187) and total ERK1/2 using MSD kit K15107D. The MSD ECL data for the lysates were corrected for no cell blanks, then phospho-protein levels expressed as a ratio to the total ERK1/2 level. The ratios were expressed as fold-change from the vehicle-treated control at each timepoint.

The subject of data set [4] is CD-1 mice. Put plainly: Arginine-Vasopressin (AVP) induced behavior in mouse (i.c.v. AVP, scratching, digging, grooming). Type of data set: in vivo. The note with it: 100 mg/kg, po. As for the experimental part: Administration of Arginine-Vasopressin (AVP) intracerebroventricularly (i.c.v.) elicits characteristic scratching, digging and grooming behavior in mice that can be measured readily and is sensitive to blockade with vasopressin antagonists (Meisenberg, 1988; Bleickart et al., 2009).
Male CD-1 mice (Charles River Germany) weighing 22-25 g upon the study in-life are used for this study. Animals are housed in groups of 4-5 per cage in standard temperature (22±1° C.) and light-controlled environment (lights on from 7 am to […]), with ad libitum access to food and water. Prior to commencing any procedures to the mice, they are allowed to habituate in the vivarium for a minimum of 7 days.
Anesthesia is induced in a plexiglass chamber for 2-3 min with 5% isoflurane, and maintained through a snout mask with 1-2% isoflurane thereafter. A homeothermic blanket system with a rectal probe is used to monitor and maintain the animal's body temperature at 37.0° C.±1.5° C. during the operation. […] The actual coordinates are calculated by the distance from the point in midline between the eyes and no skin incision is made. […]
Mice are observed and video-recorded for 15 minutes following AVP/saline administration and behaviors are measured (in seconds) and a cumulative time is calculated. […]

For data set [5], the system named is MDR1 (P-gp). Put plainly: in vitro. As to conditions: dog, MDCK-MDR1.
The nature of data set [6]: in vitro. The note with it: dog, MDCK.
Data set [7] concerns MDR1 (P-glycoprotein). Nature of the data set: MDR1-MDCK effective efflux assay (Transwell, 10 μM, 1 hour), MDR1-MDCK cells. Type of data set: in vitro ADME. As to conditions: dog, MDCK-MDR1, pH 7.4, Papp AB MDR1. Summed up:
as §1

The nature of data set [8]: MDR1-MDCK effective efflux assay (Transwell, 10 μM, 1 hour), wild-type MDCK cells. The note with it: dog, MDCK, pH 7.4, Papp AB WT. Type of data set: in vitro ADME. An outline of the steps: as §1
[9] abbreviates: second study, read-out: IC50, AVP induced pERK1/2 to total ERK1/2.
Setting [10] is: study 1, read-out: IC50, AVP induced pERK1/2 to total ERK1/2.

Chain of V1a receptors (P30560 whole entry): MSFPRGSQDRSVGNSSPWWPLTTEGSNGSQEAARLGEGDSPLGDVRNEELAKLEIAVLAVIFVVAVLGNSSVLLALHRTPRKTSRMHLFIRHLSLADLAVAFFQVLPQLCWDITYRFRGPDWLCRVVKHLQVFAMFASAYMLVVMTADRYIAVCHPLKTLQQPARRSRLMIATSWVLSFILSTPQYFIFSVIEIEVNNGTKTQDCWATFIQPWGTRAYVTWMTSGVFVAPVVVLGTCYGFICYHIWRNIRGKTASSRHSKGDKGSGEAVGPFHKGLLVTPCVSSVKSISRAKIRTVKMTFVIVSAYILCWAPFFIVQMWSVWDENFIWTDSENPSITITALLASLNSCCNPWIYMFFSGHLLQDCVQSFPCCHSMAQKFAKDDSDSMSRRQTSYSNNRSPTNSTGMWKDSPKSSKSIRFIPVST

As for `COC(=O)N1Cc2cc(Cl)ccc2-n2c(C3CC4(C3)CN(c3ccc(F)cn3)C4)nnc2C1C` (single isomer, unassigned) [142A], the “Papp AB MDR1” value in data set [1] (MDR1-MDCK cells, apical to basolateral (A>B), 10 μM, 1 hour) is “++++ ((++++) denotes >20 (10^-6 cm/sec))”. The “Papp AB WT” value in data set [2] (wild-type MDCK cells, apical to basolateral (A>B), 10 μM, 1 hour) is “++++ ((++++) denotes >20 (10^-6 cm/sec))”. Moreover, the IC50 in data set [3] (setting [9]) turned out to be 20 nM; in data set [3] (setting [10]) it was 16 nM.
In general, Papp A→B refers to the apparent permeability from the apical to the basolateral side of a cell layer. `CN1Cc2cc(Cl)ccc2-n2c(nnc2[C@H]2CC[C@H](Oc3ccccn3)CC2)C1` [balovaptan, reference compound]: the IC50 in data set [3] (setting [9]) came to 56.7 nM; in data set [3] (setting [10]), 85.6 nM. The “antagonist activity to AVP-induced scratching behaviors” value in data set [4] is recorded as “effective”. For the same compound, the Papp A→B at 2 h in data set [5] was greater than 20 ×10⁻⁶ cm/s; in data set [6], 10 to 20 ×10⁻⁶ cm/s.
In turn, `CC1c2nnc(C3CC4(C3)CN(c3ncc(F)cn3)C4)n2-c2ccc(Cl)cc2CN1C(=O)OC(CF)CF` (centres unmarked) [compound 194] returned a Papp A→B at 1 h, 10 μM in data set [7] of 10 to 20 ×10⁻⁶ cm/s. In data set [1] (MDCK-MDR1), the “MDR1 EER” value was “+” and the “MDR1 ER” value is recorded as “+”. The compound further gave a Papp A→B at 1 h, 10 μM in data set [8] of 10 to 20 ×10⁻⁶ cm/s. Besides, the “WT ER” value in data set [2] (MDCK) is reported as “++++”.
